Assay results published in ChEMBL document CHEMBL1128431, “Specific sequestering agents for the actinides. 28. Synthesis and initial evaluation of multidentate 4-carbamoyl-3-hydroxyl-1-methyl-2(1H)-pyridinone ligands for in vivo plutonium(IV) chelation” (1995).

Legend:
[1] = test system: Mus musculus; test: %Pu(IV) excreted after 24 hr in GI contents and feces under the effect of 30uM/kg(po, gastric intubation) of ligand administered 3 min after iv injection of Pu(IV) citrate; assay type: functional
[2] = test system: Mus musculus; test: Percent of Pu(IV) retained after 24 hours in kidneys of mice under the effect of 30 umol/kg (i.p.) of ligand administered 1 hr after iv injection of Pu(IV) citrate; assay type: functional, Kidney
[3] = test system: Mus musculus; test: % Pu(IV) retained after 24 hours in kidneys of mice under the effect of 30uM/kg(po, gastric intubation) of ligand administered 3 min after iv injection of Pu(IV) citrate; assay type: functional, Kidney
[4] = test system: Mus musculus; test: % Pu(IV) excreted at 0-4 hr in urine under the effect of 30uM/kg(po, gastric intubation) of ligand administered 3 min after iv injection of Pu(IV) citrate; assay type: functional
[5] = test system: Mus musculus; test: % Pu(IV) retained after 24 hours in liver of mice under the effect of 30uM/kg(po, gastric intubation) of ligand administered 3 min after iv injection of Pu(IV) citrate; assay type: functional
[6] = test system: Mus musculus; test: Percent of Pu(IV) excreted after 24 hours in GI contents and feces under the effect of 30 umol/kg (i.p.) of ligand administered 1 hr after iv injection of Pu(IV) citrate; assay type: functional
[7] = test system: Mus musculus; test: Percent of Pu(IV) retained after 24 hours in skeleton of mice under the effect of 30 umol/kg (i.p.) of ligand administered 1 hr after iv injection of Pu(IV) citrate; assay type: functional
[8] = test system: Mus musculus; test: % Pu(IV) retained after 24 hours in soft tissue of mice under the effect of 30uM/kg(po, gastric intubation) of ligand administered 3 min after iv injection of Pu(IV) citrate; assay type: functional
[9] = test system: Mus musculus; test: Percent of Pu(IV) excreted after 24 hours in urine under the effect of 30 umol/kg (i.p.) of ligand administered 1 hr after iv injection of Pu(IV) citrate; assay type: functional
[10] = test system: Mus musculus; test: Percent of Pu(IV) retained after 24 hours in soft tissue of mice under the effect of 30 umol/kg (i.p.) of ligand administered 1 hr after iv injection of Pu(IV) citrate; assay type: functional
[11] = test system: Mus musculus; test: % Pu(IV) excreted at 4-24 hr in urine under the effect of 30uM/kg(po, gastric intubation) of ligand administered 3 min after iv injection of Pu(IV) citrate
[12] = test system: Mus musculus; test: Percent of Pu(IV) retained after 24 hours in liver of mice under the effect of 30 umol/kg (i.p.) of ligand administered 1 hr after iv injection of Pu(IV) citrate; assay type: functional
[13] = test system: Mus musculus; test: % Pu(IV) retained after 24 hours in skeleton of mice under the effect of 30uM/kg(po, gastric intubation) of ligand administered 3 min after iv injection of Pu(IV) citrate; assay type: functional
[14] = test system: Mus musculus; test: Percent of Pu(IV) retained after 24 hours in whole body of mice under the effect of 30 umol/kg (i.p.) of ligand administered 1 hr after iv injection of Pu(IV) citrate; assay type: functional
[15] = test system: Mus musculus; test: % Pu(IV) retained after 24 hr in whole body of mice under the effect of 30uM/kg(po, gastric intubation) of ligand administered 3 min after iv injection of Pu(IV) citrate; assay type: functional

Structure (SMILES): O=C(NCCCN(CCCCN(CCCNC(=O)c1cccc(=O)n1O)C(=O)c1cccc(=O)n1O)C(=O)c1cccc(=O)n1O)c1cccc(=O)n1O
- ID [1]: 51%
- ID [2]: 0.2%
- ID [3]: 0.1%
- ID [4]: 23%
- ID [5]: 11%
- ID [6]: 57%
- ID [7]: 7.5%
- ID [8]: 13%
- ID [9]: 25%
- ID [10]: 1.6%
- ID [11]: 2.7%
- ID [12]: 8.9%
- ID [13]: 12%
- ID [14]: 18%
- ID [15]: 24%

Structure (SMILES): Cn1ccc(C(=O)NCCN(CCCCN(CCNC(=O)c2ccn(C)c(=O)c2O)CCNC(=O)c2ccn(C)c(=O)c2O)CCNC(=O)c2ccn(C)c(=O)c2O)c(O)c1=O
- ID [1]: 8.6%
- ID [2]: 1.8%
- ID [3]: 1.3%
- ID [4]: 20%
- ID [5]: 17%
- ID [6]: 25%
- ID [7]: 11%
- ID [8]: 1.8%
- ID [9]: 47%
- ID [10]: 2.1%
- ID [11]: 39%
- ID [12]: 14%
- ID [13]: 13%
- ID [14]: 29%
- ID [15]: 32%

Structure (SMILES): Cn1ccc(C(=O)NCCCCCNC(=O)c2ccn(C)c(=O)c2O)c(O)c1=O
- ID [1]: 22%
- ID [2]: 0.3%
- ID [3]: 0.8%
- ID [4]: 10%
- ID [5]: 25%
- ID [6]: 67%
- ID [7]: 10%
- ID [8]: 3.2%
- ID [9]: 18%
- ID [10]: 1.9%
- ID [11]: 13%
- ID [12]: 3.1%
- ID [13]: 24%
- ID [14]: 16%
- ID [15]: 54%

Structure (SMILES): Cn1ccc(C(=O)NCCCN(CCCNC(=O)c2ccn(C)c(=O)c2O)CCCNC(=O)c2ccn(C)c(=O)c2O)c(O)c1=O
- ID [1]: 36%
- ID [2]: 0.7%
- ID [3]: 0.7%
- ID [4]: 1.8%
- ID [5]: 28%
- ID [6]: 12%
- ID [7]: 14%
- ID [8]: 4.3%
- ID [9]: 55%
- ID [10]: 2%
- ID [11]: 3.6%
- ID [12]: 17%
- ID [13]: 28%
- ID [14]: 33%
- ID [15]: 60%

Structure (SMILES): Cn1ccc(C(=O)NCc2cc(CNC(=O)c3ccn(C)c(=O)c3O)cc(CNC(=O)c3ccn(C)c(=O)c3O)c2)c(O)c1=O
- ID [1]: 5.2%
- ID [2]: 0.9%
- ID [3]: 1.2%
- ID [4]: 6.4%
- ID [5]: 40%
- ID [6]: 70%
- ID [7]: 12%
- ID [8]: 7.5%
- ID [9]: 8%
- ID [10]: 3%
- ID [11]: 6%
- ID [12]: 6.1%
- ID [13]: 34%
- ID [14]: 22%
- ID [15]: 82%

Structure (SMILES): Cn1ccc(C(=O)NCCN(CCCN(CCNC(=O)c2ccn(C)c(=O)c2O)CCNC(=O)c2ccn(C)c(=O)c2O)CCNC(=O)c2ccn(C)c(=O)c2O)c(O)c1=O
- ID [1]: 22%
- ID [2]: 1.6%
- ID [3]: 1.2%
- ID [4]: 16%
- ID [5]: 13%
- ID [6]: 41%
- ID [7]: 9.9%
- ID [8]: 3.1%
- ID [9]: 34%
- ID [10]: 2.7%
- ID [11]: 33%
- ID [12]: 10%
- ID [13]: 13%
- ID [14]: 24%
- ID [15]: 30%

Structure (SMILES): Cn1ccc(C(=O)NCCCNC(=O)c2ccn(C)c(=O)c2O)c(O)c1=O
- ID [1]: 7.9%
- ID [2]: 0.5%
- ID [3]: 0.8%
- ID [4]: 16%
- ID [5]: 33%
- ID [6]: 41%
- ID [7]: 14%
- ID [8]: 5%
- ID [9]: 32%
- ID [10]: 2.6%
- ID [11]: 11%
- ID [12]: 9.5%
- ID [13]: 27%
- ID [14]: 27%
- ID [15]: 66%

Structure (SMILES): Cn1ccc(C(=O)NCCN(CCNC(=O)c2ccn(C)c(=O)c2O)CCN(CCNC(=O)c2ccn(C)c(=O)c2O)CCNC(=O)c2ccn(C)c(=O)c2O)c(O)c1=O
- ID [1]: 38%
- ID [2]: 1.3%
- ID [3]: 0.4%
- ID [4]: 12%
- ID [5]: 7.6%
- ID [6]: 45%
- ID [7]: 11%
- ID [8]: 4%
- ID [9]: 36%
- ID [10]: 2.8%
- ID [11]: 27%
- ID [12]: 3.8%
- ID [13]: 11%
- ID [14]: 19%
- ID [15]: 23%

Structure (SMILES): Cn1ccc(C(=O)NCCCCCCNC(=O)c2ccn(C)c(=O)c2O)c(O)c1=O
- ID [1]: 9.8%
- ID [2]: 0.5%
- ID [3]: 0.6%
- ID [4]: 7.3%
- ID [5]: 44%
- ID [6]: 63%
- ID [7]: 12%
- ID [8]: 6.2%
- ID [9]: 14%
- ID [10]: 3.7%
- ID [11]: 6.9%
- ID [12]: 6.5%
- ID [13]: 25%
- ID [14]: 23%
- ID [15]: 76%

Structure (SMILES): O=C(NCc1cc(CNC(=O)c2cccc(=O)n2O)cc(CNC(=O)c2cccc(=O)n2O)c1)c1cccc(=O)n1O
- ID [2]: 1.8%
- ID [6]: 43%
- ID [7]: 17%
- ID [9]: 9.6%
- ID [10]: 10%
- ID [12]: 18%
- ID [14]: 47%

Structure (SMILES): Cn1ccc(C(=O)NCCN(CCNC(=O)c2ccn(C)c(=O)c2O)CCNC(=O)c2ccn(C)c(=O)c2O)c(O)c1=O
- ID [1]: 34%
- ID [2]: 0.7%
- ID [3]: 0.7%
- ID [4]: 21%
- ID [5]: 8.5%
- ID [6]: 45%
- ID [7]: 11%
- ID [8]: 1.9%
- ID [9]: 35%
- ID [10]: 2.7%
- ID [11]: 21%
- ID [12]: 5.5%
- ID [13]: 13%
- ID [14]: 20%
- ID [15]: 25%

Structure (SMILES): CC(=O)N(O)CCCCCNC(=O)CCC(=O)N(O)CCCCCNC(=O)CCC(=O)N(O)CCCCCNC(=O)c1ccn(C)c(=O)c1O
- ID [1]: 17%
- ID [2]: 3%
- ID [3]: 2.4%
- ID [4]: 2.4%
- ID [5]: 22%
- ID [6]: 26%
- ID [7]: 17%
- ID [8]: 15%
- ID [9]: 21%
- ID [10]: 19%
- ID [11]: 20%
- ID [12]: 13%
- ID [13]: 20%
- ID [14]: 53%
- ID [15]: 60%

Structure (SMILES): Cn1ccc(C(=O)NCCCCNC(=O)c2ccn(C)c(=O)c2O)c(O)c1=O
- ID [1]: 11%
- ID [2]: 0.4%
- ID [3]: 0.5%
- ID [4]: 26%
- ID [5]: 34%
- ID [6]: 63%
- ID [7]: 11%
- ID [8]: 3.2%
- ID [9]: 19%
- ID [10]: 1.9%
- ID [11]: 8.8%
- ID [12]: 3.7%
- ID [13]: 17%
- ID [14]: 17%
- ID [15]: 55%

Structure (SMILES): Cn1ccc(C(=O)NCCOCCNC(=O)c2ccn(C)c(=O)c2O)c(O)c1=O
- ID [1]: 46%
- ID [2]: 0.3%
- ID [3]: 0.8%
- ID [4]: 14%
- ID [5]: 11%
- ID [6]: 56%
- ID [7]: 11%
- ID [8]: 2.9%
- ID [9]: 28%
- ID [10]: 1.7%
- ID [11]: 7.8%
- ID [12]: 2.7%
- ID [13]: 18%
- ID [14]: 16%
- ID [15]: 34%
